In PubChem BioAssay AID328 (DTP/NCI, 2004) one finds T/C data, which are given here for 19 compounds.

The test deals with BDF1 mice, P388 leukemia ip, median survival T/C. The experiment in a line: NCI In Vivo Anticancer Drug Screen. Data for tumor model P388 Leukemia (intraperitoneal) in B6D2F1 (BDF1) mice. The following applies: endpoint: median survival time, higher = longer survival. Put shortly:
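T/C = treated-group survival ÷ vehicle-control survival; tumour transplanted into mice before dosing.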

Where [1] appears, read: dose: 50.0 mg/kg/injection, schedule: Q01DX009 (ip), vehicle: Klucel (hydroxypropylcellulose) (HPC).
[2] abbreviates: dose: 6.25 mg/kg/injection, schedule: Q01DX009 (ip), vehicle: saline with Tween-80.
Where [3] appears, read: dose: 12.5 mg/kg/injection, schedule: Q01DX009 (ip), vehicle: saline with Tween-80.
Where [4] appears, read: dose: 25.0 mg/kg/injection, schedule: Q01DX009 (ip), vehicle: saline with Tween-80.
[5] abbreviates: dose: 100.0 mg/kg/injection, schedule: Q04DX003 (ip), vehicle: saline.
The mark [6] stands for this setting: dose: 200.0 mg/kg/injection, schedule: Q04DX003 (ip), vehicle: saline.
The mark [7] stands for this setting: dose: 100.0 mg/kg/injection, schedule: Q01DX009 (ip), vehicle: Klucel (hydroxypropylcellulose) (HPC).
[8] abbreviates: dose: 100.0 mg/kg/injection, schedule: Q04DX003 (ip), vehicle: Klucel (hydroxypropylcellulose) (HPC).
The mark [9] stands for this setting: dose: 50.0 mg/kg/injection, schedule: Q01DX009 (ip), vehicle: saline with Tween-80.
The mark [10] stands for this setting: dose: 50.0 mg/kg/injection, schedule: Q04DX003 (ip), vehicle: saline with Tween-80.
Setting [11] is: dose: 100.0 mg/kg/injection, schedule: Q01DX009 (ip), vehicle: saline with Tween-80.
Setting [12] is: dose: 100.0 mg/kg/injection, schedule: Q04DX003 (ip), vehicle: saline with Tween-80.
Where [13] appears, read: dose: 200.0 mg/kg/injection, schedule: Q04DX003 (ip), vehicle: saline with Tween-80.
Where [14] appears, read: dose: 400.0 mg/kg/injection, schedule: Q04DX003 (ip), vehicle: saline with Tween-80.
The mark [15] stands for this setting: dose: 400.0 mg/kg/injection, schedule: Q04DX003 (ip), vehicle: saline.
Where [16] appears, read: dose: 200.0 mg/kg/injection, schedule: Q01DX009 (ip), vehicle: saline with Tween-80.

Several values for one entry are separate records, joined by “and”; a condition that tells them apart may be missing. Identical values can stand only once. Inconclusive results and toxic doses are left out.

Regarding `CCOc1ccc(Nc2c3ccccc3nc3ccccc23)cc1`, the T/C is 110 % of control (dose: 0.39 mg/kg/injection, schedule: Q01DX009 (ip), vehicle: Klucel (hydroxypropylcellulose) (HPC)); 114 % of control (dose: 0.78 mg/kg/injection, schedule: Q01DX009 (ip), vehicle: Klucel (hydroxypropylcellulose) (HPC)); 96 % of control (dose: 1.56 mg/kg/injection, schedule: Q01DX009 (ip), vehicle: Klucel (hydroxypropylcellulose) (HPC)); 159 % of control under setting [1].

Take `CN=C(NC)c1ccc(NC(=O)c2ccc(C(=O)Nc3ccc(C(=NC)NC)cc3)cc2)cc1`: the T/C is 104 % of control under setting [2]; 100 % of control under setting [3]; 86 % of control under setting [4]; 90 % of control under setting [5]; 90 % of control under setting [6].

As for `ClC1=C(Cl)C(Cl)(C2(Cl)C(Cl)=C(Cl)C(Cl)=C2Cl)C(Cl)=C1Cl`, the T/C is 123 % of control (dose: 100.0 mg/kg/injection, schedule: Q01DX009 (ip), vehicle: gum acacia); 108 % of control (dose: 100.0 mg/kg/injection, schedule: Q04DX003 (ip), vehicle: gum acacia); 116 % of control (dose: 200.0 mg/kg/injection, schedule: Q04DX003 (ip), vehicle: gum acacia); 104 % of control (dose: 400.0 mg/kg/injection, schedule: Q04DX003 (ip), vehicle: gum acacia).

Take `COc1ccccc1/C=N\NC(C)=O`: the T/C by setting is: (dose: 25.0 mg/kg/injection, schedule: Q01DX009 (ip), vehicle: Klucel (hydroxypropylcellulose) (HPC)) 96 % of control; (dose: 25.0 mg/kg/injection, schedule: Q04DX003 (ip), vehicle: Klucel (hydroxypropylcellulose) (HPC)) 86 % of control; under setting [1], 107 % of control; under setting [7], 92 % of control; under setting [8], 86 % of control.

As to `CNCCNC`, the T/C by setting is: (dose: 50.0 mg/kg/injection, schedule: Q01DX005 (ip), vehicle: saline) 100 % of control; (dose: 100.0 mg/kg/injection, schedule: Q01DX005 (ip), vehicle: saline) 98 % of control; (dose: 200.0 mg/kg/injection, schedule: Q01DX005 (ip), vehicle: saline) 95 % of control.

In the case of `CCN(CC)CCOc1cc(C)ccc1C(C)C`, the T/C under setting [4] is 96 % of control; the T/C (dose: 25.0 mg/kg/injection, schedule: Q04DX003 (ip), vehicle: saline with Tween-80) is 109 % of control; the T/C under setting [9] is 111 % of control; the T/C under setting [10] was 109 % of control; the T/C under setting [11] was 107 % of control; the T/C under setting [12] was 118 % of control.

On to `C[C@H](CCC(=O)O)[C@H]1CC[C@H]2[C@@H]3[C@H](O)C[C@@H]4C[C@H](O)CC[C@]4(C)[C@H]3C[C@H](O)[C@]12C` (tested in a mixture with another compound), for which the T/C is 155 % of control (dose: 100.0 mg/kg/injection, schedule: Q01DX009 (ip), vehicle: saline); 122 % of control (dose: 132.0 mg/kg/injection, schedule: Q04DX003 (ip), vehicle: saline sonified); 209 % of control (dose: 200.0 mg/kg/injection, schedule: Q01DX009 (ip), vehicle: other); 190 % of control (dose: 200.0 mg/kg/injection, schedule: Q01DX009 (ip), vehicle: saline); 166 % of control (dose: 300.0 mg/kg/injection, schedule: Q04DX003 (ip), vehicle: saline sonified); 172 % of control (dose: 400.0 mg/kg/injection, schedule: Q04DX003 (ip), vehicle: saline sonified).

As for `Nc1nc2ccccc2c(=O)n1C(=O)c1ccccc1`, the T/C was 93 % of control under setting [12], 94 % of control under setting [13] and 116 % of control under setting [14].

In the case of `Nc1noc(N)n1`, the T/C runs as follows: under setting [5], 109 % of control; under setting [6], 100 % of control; under setting [15], 104 % of control.

`COc1cc2ccnc(Cc3ccccc3)c2cc1OC`: the T/C under setting [11] was 109 % of control; the T/C under setting [12] was 109 % of control; the T/C under setting [16] was 104 % of control; the T/C under setting [13] was 109 % of control; the T/C under setting [14] was 109 % of control.

Regarding `O=C(Nc1ccc2c(c1)C(Br)c1ccccc1-2)C(F)(F)F` (stereo unspecified), the T/C is, setting by setting: under setting [1], 90 % of control; under setting [7], 100 % of control; (dose: 200.0 mg/kg/injection, schedule: Q01DX009 (ip), vehicle: Klucel (hydroxypropylcellulose) (HPC)) 118 % of control.

In the case of `Cc1ccc(C(=O)Cl)cc1S(=O)(=O)F`, the T/C was 100 % of control under setting [4]; 101 % of control under setting [10]; 93 % of control under setting [11]; 109 % of control under setting [12]; 101 % of control under setting [13].

With `CC(C)(C)OC(=O)NCC(=O)NNC(=O)OC(C)(C)C`, the T/C is 104 % of control under setting [5], 113 % of control under setting [6] and 104 % of control under setting [15].

For the compound `O=S1(=O)CC2(N3CCOCC3)CCCCC21` (stereo unspecified), the T/C by setting is: under setting [11], 100 % of control; under setting [16], 100 % of control; (dose: 400.0 mg/kg/injection, schedule: Q01DX009 (ip), vehicle: saline with Tween-80) 112 % of control.

In the case of `NC(=S)N/N=C/c1c[nH]c2ccccc12`, the T/C reads like this: under setting [8], 100 % of control; (dose: 200.0 mg/kg/injection, schedule: Q04DX003 (ip), vehicle: Klucel (hydroxypropylcellulose) (HPC)) 113 % of control; (dose: 400.0 mg/kg/injection, schedule: Q04DX003 (ip), vehicle: Klucel (hydroxypropylcellulose) (HPC)) 104 % of control.

In the case of `CN(C)[C@@H]1C(=O)C(C(=O)NCN(CCCl)CCCl)=C(O)[C@@]2(O)C(=O)C3=C(O)c4c(O)cccc4[C@@](C)(O)[C@H]3C[C@@H]12`, the T/C by setting is: (dose: 3.12 mg/kg/injection, schedule: Q01DX009 (ip), vehicle: saline with Tween-80) 104 % of control; (dose: 6.25 mg/kg/injection, schedule: Q01DX009 (ip), vehicle: Klucel (hydroxypropylcellulose) (HPC)) 91 % of control; under setting [2], 100 % of control; (dose: 9.0 mg/kg/injection, schedule: Q01DX009 (ip), vehicle: saline) 159 % of control; (dose: 12.5 mg/kg/injection, schedule: Q01DX009 (ip), vehicle: Klucel (hydroxypropylcellulose) (HPC)) 108 % of control; under setting [3], 100 % of control. In addition, the T/C by setting is: (dose: 14.0 mg/kg/injection, schedule: Q01DX009 (ip), vehicle: saline) 172 % of control; (dose: 20.0 mg/kg/injection, schedule: Q04DX003 (ip), vehicle: saline) 150 % of control; (dose: 22.0 mg/kg/injection, schedule: Q01DX009 (ip), vehicle: saline) 161 % of control and 209 % of control; under setting [4], 90 % of control and 109 % of control; (dose: 33.0 mg/kg/injection, schedule: Q01DX009 (ip), vehicle: saline) 169 % of control; (dose: 33.0 mg/kg/injection, schedule: Q04DX003 (ip), vehicle: saline with Tween-80) 163 % of control. The T/C is, setting by setting: (dose: 44.0 mg/kg/injection, schedule: Q04DX003 (ip), vehicle: saline) 186 % of control; under setting [1], 163 % of control; under setting [9], 86 % of control and 109 % of control; (dose: 50.0 mg/kg/injection, schedule: Q01DX009 (ip), vehicle: saline) 203 % of control and 208 % of control; under setting [10], 186 % of control; (dose: 67.0 mg/kg/injection, schedule: Q04DX003 (ip), vehicle: saline) 196 % of control. Further, the T/C by setting is: (dose: 75.0 mg/kg/injection, schedule: Q01DX009 (ip), vehicle: saline) 211 % of control; (dose: 75.0 mg/kg/injection, schedule: Q04DX003 (ip), vehicle: saline with Tween-80) 218 % of control; under setting [11], 109 % of control; under setting [5], 229 % of control and 220 % of control; under setting [6], 91 % of control.

With `Cc1c(Cl)cccc1NC(=O)Oc1ccc(Cl)cc1Cl`, the T/C is, setting by setting: under setting [10], 109 % of control; under setting [12], 122 % of control; under setting [13], 113 % of control.

As for `C[CH2][Ge]([CH2]C)[CH2]/C=C\[CH2][Ge]([CH2]C)[CH2]C`, the T/C reads like this: under setting [3], 100 % of control; under setting [4], 89 % of control; under setting [9], 100 % of control.

In the case of `CC(C)=CCCC(C)C/C=N\O` (stereo unspecified), the T/C is 107 % of control under setting [3]; 107 % of control under setting [4]; 96 % of control under setting [9]; 109 % of control under setting [12]; 113 % of control under setting [13]; 109 % of control under setting [14].
